In publication PMC8037182, “Solvothermal Synthesis of Multiple Dihydropyrimidinones at a Time as Inhibitors of Eg5” (Molecules, 2021):

Tested on: Caco-2 cell line
Test: Cytotoxicity MTS assay, Caco-2 cell line
Assay type: cell-based
Conditions: for OD490 Mean / OD490 Well 1 / OD490 Well 2 / OD490 Well 3: Caco-2 cell line
Procedure: The positive compounds (IC50 < 100 μM) obtained from the primary Eg5 motor protein ATPase assay were tested for antiproliferative activity in vitro against Caco-2 cell line, Hela cell line, L929 cell line and T24 cell line by performing MTS assay. Cells were introduced into 96-well plates at a density of 1000 cells per well. After 24 h incubation, the cells were exposed with compounds at final concentrations ranging from 0.5 to 100 µM for 24 h. DMSO was used at a final concentration of 0.025% as blank control, monastrol was used as the positive control. Then 20 µL (CellTiter 96® AQueous One Solution Promega, Madison, WI, USA) reagent was added in each well. After 2 h at 37 °C in a 80% humidified, 5% CO2 atmosphere, the absorbance at 490 nm was recorded using a microplate reader (BIO-RAD iMark^TM). The results were obtained in three independent duplicate experiments. The primary data were shown in Supplementary Materials Tables S4–S7. The IC50 values for these compounds were calculated from a non-linear regression graph plotted between the percentage of cell viability and concentration with SPSS17.0 software.

CCOC(=O)c1[nH]c(C2NC(=S)NC(C)=C2C(=O)OC)c(C(=O)OCC)c1C (stereo not shown) [D12]
OD490 Mean (0.5μM, first assay): 0.5030
OD490 Well 1 (0.5μM, first assay): 0.4995
OD490 Well 2 (0.5μM, first assay): 0.5121
OD490 Well 3 (0.5μM, first assay): 0.4973
OD490 Mean (0.5μM, second assay): 0.6834
OD490 Well 1 (0.5μM, second assay): 0.5732
OD490 Well 2 (0.5μM, second assay): 0.7838
OD490 Well 3 (0.5μM, second assay): 0.6933
OD490 Mean (0.5μM, third assay): 0.6157
OD490 Well 1 (0.5μM, third assay): 0.6017
OD490 Well 2 (0.5μM, third assay): 0.6354
OD490 Well 3 (0.5μM, third assay): 0.6100
OD490 Mean (1μM, first assay): 0.4963
OD490 Well 1 (1μM, first assay): 0.4703
OD490 Well 2 (1μM, first assay): 0.5352
OD490 Well 3 (1μM, first assay): 0.4835
OD490 Mean (1μM, second assay): 0.6457
OD490 Well 1 (1μM, second assay): 0.5559
OD490 Well 2 (1μM, second assay): 0.7221
OD490 Well 3 (1μM, second assay): 0.6591
OD490 Mean (1μM, third assay): 0.6229
OD490 Well 1 (1μM, third assay): 0.6178
OD490 Well 2 (1μM, third assay): 0.6489
OD490 Well 3 (1μM, third assay): 0.6021
OD490 Mean (10μM, first assay): 0.5326
OD490 Well 1 (10μM, first assay): 0.5238
OD490 Well 2 (10μM, first assay): 0.5488
OD490 Well 3 (10μM, first assay): 0.5251
OD490 Mean (10μM, second assay): 0.6099
OD490 Well 1 (10μM, second assay): 0.585
OD490 Well 2 (10μM, second assay): 0.6539
OD490 Well 3 (10μM, second assay): 0.5909
OD490 Mean (10μM, third assay): 0.6194
OD490 Well 1 (10μM, third assay): 0.6123
OD490 Well 2 (10μM, third assay): 0.6244
OD490 Well 3 (10μM, third assay): 0.6214
OD490 Mean (25μM, first assay): 0.5279
OD490 Well 1 (25μM, first assay): 0.5868
OD490 Well 2 (25μM, first assay): 0.5324
OD490 Well 3 (25μM, first assay): 0.4646
OD490 Mean (25μM, second assay): 0.5376
OD490 Well 1 (25μM, second assay): 0.5247
OD490 Well 2 (25μM, second assay): 0.5145
OD490 Well 3 (25μM, second assay): 0.5736
OD490 Mean (25μM, third assay): 0.5839
OD490 Well 1 (25μM, third assay): 0.5863
OD490 Well 2 (25μM, third assay): 0.5944
OD490 Well 3 (25μM, third assay): 0.5711
OD490 Mean (50μM, first assay): 0.5705
OD490 Well 1 (50μM, first assay): 0.5776
OD490 Well 2 (50μM, first assay): 0.5840
OD490 Well 3 (50μM, first assay): 0.5499
OD490 Mean (50μM, second assay): 0.6141
OD490 Well 1 (50μM, second assay): 0.6452
OD490 Well 2 (50μM, second assay): 0.6668
OD490 Well 3 (50μM, second assay): 0.5302
OD490 Mean (50μM, third assay): 0.5882
OD490 Well 1 (50μM, third assay): 0.5933
OD490 Well 2 (50μM, third assay): 0.5725
OD490 Well 3 (50μM, third assay): 0.5988
OD490 Mean (100μM, first assay): 0.4236
OD490 Well 1 (100μM, first assay): 0.4210
OD490 Well 2 (100μM, first assay): 0.4345
OD490 Well 3 (100μM, first assay): 0.4153
OD490 Mean (100μM, second assay): 0.5967
OD490 Well 1 (100μM, second assay): 0.5668
OD490 Well 2 (100μM, second assay): 0.6735
OD490 Well 3 (100μM, second assay): 0.5498
OD490 Mean (100μM, third assay): 0.4730
OD490 Well 1 (100μM, third assay): 0.4925
OD490 Well 2 (100μM, third assay): 0.4687
OD490 Well 3 (100μM, third assay): 0.4578
IC50 (MTS assay, 24 h exposure): 148 µM
